Patent US12240844B2 (Voronoi, Inc., priority 2019, dated 2025)

Experiments:
Assay type in all cases: biochemical
[1] = biological target: LRRK2 (G2019S) (Homo sapiens, UniProt Q5S007, G2019S); assay: LRRK2 G2019S enzyme inhibition, ADP-Glo kinase assay; parameters: purchased SignalChem L10-12GG
Method: (§1) In order to evaluate the inhibitory activity of the compounds according to the present invention on LRRK2, LRRK2 (G2019S), DYRK1, CLK1 and TTK kinases, the following experiment was performed.
Example compounds were reacted with the purified human LRRK2 G2019S (L10-12GG, SignalChem) enzyme to evaluate the enzyme inhibitory ability as follows. The reaction buffer was used as the composition of 40 mM Tris-HCl pH7.4, 20 mM MgCl2, 0.5 mg/ml BSA and 50 μM DTT, and the reaction of all test materials was performed on the reaction buffer. The compound was diluted with 10 mM DMSO stock in 12 steps by a serial dilution method, and the enzyme activity was measured at the final compound concentrations of 50, 10, 2, 0.4, 0.08, 0.016, 0.0032, 0.00064, 0.000128, 0.0000256, 0.00000512 and 0.000001024 μM. In the test, the human LRRK2 G2019S (16 ng) enzyme was reacted with the purified ATP (25 μM) and an enzyme substrate (0.2 μg) at 25° C. for 2 hours, and then the enzyme activity was identified using the in vitro ADP-Glo™ kinase assay (promega). The enzyme activity reaction liquid, an ADP-Glo reaction liquid and an enzyme potency detection solution were reacted in a ratio of 2:2:1, and the degree of inhibition of enzyme activity was measured by Luminescence. The degree of inhibition of enzyme activity according to the treatment concentrations of the respective compounds was calculated based on the fluorescence of the enzyme activity of a solvent control group that was not treated with the compound, where the concentration of each compound to inhibit enzyme activity inhibition by 50% was determined as an IC50 (nM) value and obtained using Prism (Version 5.01, GraphPad) software.
(§2) In the table below, the following designations were used for the evaluation of enzyme inhibitory ability.

[2] = biological target: T1, human GST-DYRK1A (full length) (Homo sapiens, UniProt Q13627); assay: GST-DYRK1A enzyme inhibition, ADP-Glo kinase assay; conditions: read-out: DYRK1 IC50
T1 construct: purified human GST-DYRK1A (full length, Thermo scientifics) enzyme; GST; purchased Thermo scientifics
Method: as §1
(§3) Example compounds were reacted with the purified human GST-DYRK1A (full length, Thermo scientifics) enzyme to evaluate the enzyme inhibitory ability as follows. As the reaction buffer, the composition of 40 mM Tris-HCl pH 7.4, 20 mM MgCl2, 0.5 mg/mL BSA, and 50 uM DTT was used, and the reaction of all test materials was performed on the reaction buffer. During the test, the human GST-DYRK1A (full length, 10 ng) enzyme, the purified ATP (10 uM), and a specific substrate solution were reacted at 25° C. for 1 hour, and then the enzyme activity was identified using the in vitro ADP-Glo™ kinase assay (promega). Luminescence was measured by reacting the enzyme activity reaction solution, an ADP-Glo reaction solution and the enzyme potency detection solution in a ratio of 2:2:1. The degree of inhibition of enzyme activity according to the treatment concentrations of the respective compounds was calculated based on the fluorescence of the enzyme activity of a solvent control group that was not treated with the compound, where the concentration of each compound to inhibit enzyme activity inhibition by 50% was determined as an IC50 (nM) value. The IC50 of each compound was determined in triplicate data sets and obtained using Prism (version 7.01, GraphPad) software.
as §2

[3] = biological target: T2, human GST-CLK1 (129-end) (Homo sapiens, UniProt P49759); assay: GST-CLK1 enzyme inhibition, ADP-Glo kinase assay; conditions: ATP 10 uM
T2 construct: purified human GST-CLK1 (129-end, Signalchem) enzyme; GST; purchased Signalchem
Method: as §1
as §3, with “GST-CLK1 (129-end, Signalchem)” for “GST-DYRK1A (full length, Thermo scientifics)”, “GST-CLK1 (129-end, 3” for “GST-DYRK1A (full length, 10”
as §2

T2 sequence (P49759 129-484 limits assumed): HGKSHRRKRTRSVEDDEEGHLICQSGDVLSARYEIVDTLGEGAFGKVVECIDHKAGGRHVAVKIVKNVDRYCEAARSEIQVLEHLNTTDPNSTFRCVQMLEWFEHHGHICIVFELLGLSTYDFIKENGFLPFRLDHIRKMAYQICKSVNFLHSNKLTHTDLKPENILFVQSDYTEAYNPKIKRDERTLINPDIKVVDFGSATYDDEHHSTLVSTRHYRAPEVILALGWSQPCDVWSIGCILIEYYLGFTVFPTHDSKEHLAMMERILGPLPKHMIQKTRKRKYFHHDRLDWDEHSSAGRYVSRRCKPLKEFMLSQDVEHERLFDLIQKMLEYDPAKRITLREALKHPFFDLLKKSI
Chain of LRRK2 (G2019S) (Q5S007 970-2527 G2019S limits assumed): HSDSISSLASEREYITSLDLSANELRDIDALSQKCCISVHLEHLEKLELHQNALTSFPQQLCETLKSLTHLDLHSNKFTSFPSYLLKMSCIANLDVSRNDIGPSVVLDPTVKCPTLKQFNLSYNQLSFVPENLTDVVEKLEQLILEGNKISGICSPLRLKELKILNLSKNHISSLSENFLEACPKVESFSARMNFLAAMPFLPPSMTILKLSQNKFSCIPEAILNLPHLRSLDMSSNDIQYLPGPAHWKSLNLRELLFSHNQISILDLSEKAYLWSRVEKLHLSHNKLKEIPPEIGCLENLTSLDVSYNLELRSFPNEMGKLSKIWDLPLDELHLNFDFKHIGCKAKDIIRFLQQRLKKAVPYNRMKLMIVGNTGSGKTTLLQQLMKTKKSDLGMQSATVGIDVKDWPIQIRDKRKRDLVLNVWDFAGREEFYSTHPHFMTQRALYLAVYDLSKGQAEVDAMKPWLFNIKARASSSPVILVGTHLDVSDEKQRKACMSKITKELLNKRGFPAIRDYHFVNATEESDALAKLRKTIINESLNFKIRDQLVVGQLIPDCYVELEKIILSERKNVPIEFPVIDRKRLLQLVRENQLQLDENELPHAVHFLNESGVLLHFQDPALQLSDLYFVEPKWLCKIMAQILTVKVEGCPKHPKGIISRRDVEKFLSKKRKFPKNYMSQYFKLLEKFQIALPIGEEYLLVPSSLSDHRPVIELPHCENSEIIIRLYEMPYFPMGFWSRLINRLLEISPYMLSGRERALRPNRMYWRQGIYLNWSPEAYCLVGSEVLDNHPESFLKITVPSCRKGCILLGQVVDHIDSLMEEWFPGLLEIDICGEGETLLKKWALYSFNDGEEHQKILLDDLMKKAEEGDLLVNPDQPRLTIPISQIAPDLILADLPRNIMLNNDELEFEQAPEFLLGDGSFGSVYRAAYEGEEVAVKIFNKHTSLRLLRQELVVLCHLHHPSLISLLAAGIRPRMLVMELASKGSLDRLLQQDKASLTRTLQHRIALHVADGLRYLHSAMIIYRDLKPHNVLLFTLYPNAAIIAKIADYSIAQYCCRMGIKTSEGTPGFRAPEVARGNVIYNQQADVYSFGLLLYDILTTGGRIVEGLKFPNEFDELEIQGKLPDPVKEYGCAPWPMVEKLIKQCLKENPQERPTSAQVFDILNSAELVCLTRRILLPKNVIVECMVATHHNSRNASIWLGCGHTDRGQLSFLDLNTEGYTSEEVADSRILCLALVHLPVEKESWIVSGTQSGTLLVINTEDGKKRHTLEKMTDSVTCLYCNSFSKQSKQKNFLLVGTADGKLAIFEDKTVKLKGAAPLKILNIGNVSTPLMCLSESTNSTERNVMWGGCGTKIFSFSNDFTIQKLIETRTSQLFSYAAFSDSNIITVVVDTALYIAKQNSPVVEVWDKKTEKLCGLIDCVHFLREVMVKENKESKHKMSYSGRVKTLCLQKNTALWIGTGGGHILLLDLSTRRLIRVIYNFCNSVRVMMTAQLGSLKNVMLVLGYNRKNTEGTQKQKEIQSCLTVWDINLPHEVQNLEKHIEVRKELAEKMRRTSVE

IC50 [1]	IC50 [2]	IC50 [3]	Structure (SMILES)
301 to 1000 nM	301 to 1000 nM	101 to 300 nM	CCNc1cc(Nc2ccc(C(=O)N3CCC4(CC3)CC4)c3c2OCC3)nc2[nH]cc(C(F)(F)F)c12 [Example 256, (7-((4-(ethylamino)-3-(trifluoromethyl)-1H-pyrrolo[2,3-b]pyridin-6-yl)amino)-2,3-dihydrobenzofuran-4-yl)(6-azaspiro[2.5]octan-6-yl)methanone]
< 100 nM	301 to 1000 nM	301 to 1000 nM	CNc1cc(Nc2ccc(S(=O)(=O)N3CCC(N4CCOCC4)CC3)cc2OC)nc2[nH]cc(Cl)c12 [Example 73, 3-chloro-N^6-(2-methoxy-4-((morpholinopiperidin-1-yl)sulfonyl)phenyl)-N^4-methyl-1H-pyrrolo[2,3-b]pyridine-4,6-diamine]
301 to 1000 nM	301 to 1000 nM	301 to 1000 nM	COc1cc(S(C)(=O)=O)ccc1Nc1cc(NC2CC2)c2c(Cl)c[nH]c2n1 [Example 84, 3-chloro-N^4-cyclopropyl-N^6-(2-methoxy-4-(methylsulfonyl)phenyl)-1H-pyrrolo[2,3-b]pyridine-4,6-diamine]
< 100 nM	301 to 1000 nM	301 to 1000 nM	CCCNc1cc(Nc2ccc(C(=O)N3CCOCC3)c3c2OCCO3)nc2[nH]ccc12 [Example 4, morpholino(8-((4-(propylamino)-1H-pyrrolo[2,3-b]pyridin-6-yl)amino)-2,3-dihydrobenzo [b] [1,4]dioxin-5-yl)(morpholino) methanone 2,2,2-trifluoroacetate]
< 100 nM	301 to 1000 nM	301 to 1000 nM	O=C(c1ccc(Nc2cc(NC3CC3)c3c(Cl)c[nH]c3n2)c2c1OCCO2)N1CCOCC1 [Example 60, (8-((3-chloro-4-(cyclopropylamino)-1H-pyrrolo[2,3-b]pyridin-6-yl)amino)-2,3-dihydrobenzo [b] [1,4]dioxin-5-yl)(morpholino) methanone]
< 100 nM	< 100 nM	< 100 nM	C=CCN1CCN(C(=O)c2ccc(Nc3cc(NCC)c4c(C(F)(F)F)c[nH]c4n3)c3c2CCO3)CC1 [Example 252, (4-allylpiperazin-1-yl)(7-((4-(ethylamino)-3-(trifluoromethyl)-1H-pyrrolo[2,3-b]pyridin-6-yl)amino)-2,3-dihydrobenzofuran-4-yl)methanone]
101 to 300 nM	301 to 1000 nM	301 to 1000 nM	CCNc1cc(Nc2ccc(S(=O)(=O)N3CCC(N4CCOCC4)CC3)cc2OC)nc2[nH]cc(Cl)c12 [Example 74, 3-chloro-N^4-ethyl-N^6-(2-methoxy-4-((morpholinopiperidin-1-yl)sulfonyl)phenyl)-1H-pyrrolo[2,3-b]pyridine-4,6-diamine]
301 to 1000 nM	301 to 1000 nM	301 to 1000 nM	COc1cc(S(=O)(=O)N2CCOCC2)ccc1Nc1cc(NCCS(C)(=O)=O)c2c(Cl)c[nH]c2n1 [Example 72, 3-chloro-N^6-(2-methoxy-4-(morpholinosulfonyl)phenyl)-N^4-(2-(methylsulfonyl)ethyl)-1H-pyrrolo[2,3-b]pyridine-4,6-diamine]
< 100 nM	301 to 1000 nM	301 to 1000 nM	COc1cc(S(=O)(=O)N2CCC(N3CCOCC3)CC2)ccc1Nc1cc(NC2CC2)c2c(Cl)c[nH]c2n1 [Example 76, 3-chloro-N^4-cyclopropyl-N^6-(2-methoxy-4-((morpholinopiperidin-1-yl)sulfonyl)phenyl)-1H-pyrrolo[2,3-b]pyridine-4,6-diamine]
101 to 300 nM	301 to 1000 nM	301 to 1000 nM	CCNc1cc(Nc2ccc(S(=O)(=O)N3CCOCC3)cc2OC)nc2[nH]ccc12 [Example 11, N^4-ethyl-N^6-(2-methoxy-4-(morpholinosulfonyl)phenyl)-1H-pyrrolo[2,3-b]pyridine-4,6-diamine 2,2,2-trifluoroacetate]
101 to 300 nM	301 to 1000 nM	301 to 1000 nM	CCNc1cc(Nc2ccc(C(=O)N3CCOCC3)c3c2OCCO3)nc2[nH]ccc12 [Example 3, (8-((4-(ethylamino)-1H-pyrrolo[2,3-b]pyridin-6-yl)amino)-2,3-dihydrobenzo[b] [1,4]dioxin-5-yl)(morpholino) methanone 2,2,2-trifluoroacetate]
301 to 1000 nM	301 to 1000 nM	301 to 1000 nM	CCCNc1cc(Nc2ccc(S(C)(=O)=O)cc2OC)nc2[nH]cc(Cl)c12 [Example 82, 3-chloro-N^6-(2-methoxy-4-(methylsulfonyl)phenyl)-N^4-propyl-1H-pyrrolo[2,3-b]pyridine-4,6-diamine]
< 100 nM	< 100 nM	< 100 nM	CCNc1cc(Nc2ccc(P3(=O)CCN(Cc4ccc(OC)cc4OC)CC3)cn2)nc2[nH]cc(C(F)(F)F)c12 [Example 267, 1-(2,4-dimethoxybenzy 1)-4-(6-((4-(ethylamino)-3-(trifluoromethyl)-1H-pyrrolo[2,3-b]pyridin-6-yl)amino)pyridin-3-yl)-1,4-azaphosphinane 4-oxide]
301 to 1000 nM	301 to 1000 nM	301 to 1000 nM	CC(C)Nc1cc(Nc2ccc(C(=O)N3CCOCC3)c3c2OCCO3)nc2[nH]cc(Cl)c12 [Example 59, (8-((3-chloro-4-(isopropylamino)-1H-pyrrolo[2,3-b]pyridin-6-yl)amino)-2,3-dihydrobenzo [b] [1,4]dioxin-5-yl)(morpholino) methanone]
< 100 nM	< 100 nM	< 100 nM	CCNc1cc(Nc2ccc(C(=O)N3CCC(N4C[C@@H](C)O[C@@H](C)C4)CC3)c3c2OCC3)nc2[nH]cc(C(F)(F)F)c12 [Example 263, (4-((2S,6R)-2,6-dimethylmorpholino)piperidin-1-yl)(7-((4-(ethylamino)-3-(trifluoromethyl)-1H-pyrrolo[2,3-b]pyridin-6-yl)amino)-2,3-dihydrobenzofuran-4-yl)methanone]
< 100 nM	301 to 1000 nM	301 to 1000 nM	CNc1cc(Nc2ccc(S(=O)(=O)N3CCC(N4CCOCC4)CC3)cc2OC)nc2[nH]ccc12 [Example 18, N^6-(2-methoxy-4-((4-morpholinopiperidin-1-yl)sulfonyl)phenyl)-N^4-methyl-1H-pyrrolo[2,3-b]pyridine-4,6-diamine]
< 100 nM	301 to 1000 nM	301 to 1000 nM	CCCNc1cc(Nc2ccc(S(=O)(=O)N3CCOCC3)cc2OC)nc2[nH]ccc12 [Example 12, N^6-(2-methoxy-4-(morpholinosulfonyl)phenyl)-N^4-propyl-1H-pyrrolo[2,3-b]pyridine-4,6-diamine 2,2,2-trifluoroacetate]
301 to 1000 nM	301 to 1000 nM	301 to 1000 nM	COc1cc(S(C)(=O)=O)ccc1Nc1cc(NC(C)C)c2c(Cl)c[nH]c2n1 [Example 83, 3-chloro-N^4-isopropyl-N^6-(2-methoxy-4-(methylsulfonyl)phenyl)-1H-pyrrolo[2,3-b]pyridine-4,6-diamine]
